Source: US11389501B1, “Method for treating eye inflammation using anti-inflammatory composition having bioactive compound” (TCI CO., LTD., priority 2021, dated 2022)

Experiments:
Assay type in all cases: cell-based
IL-8 gene = test: qRT-PCR of IL-8 gene expression in blue light-irradiated human retinal pigment epithelial cells; conditions: ARPE-19 cells, 0.0125 mg/ml, incubated 24 h, then blue light 15 min; control group = 100%, comparative group (blue light only) 121.77%
Source text: (§1) In the present embodiment, an RNA extraction kit, a reverse transcriptase, and a KAPA SYBR® FAST qPCR reagent kit were used in conjunction with a quantitative PCR instrument to determine the changes in expression level of the genes associated with eye protection and anti-inflammation in human retinal pigment epithelial cells treated with the peptide having the amino acid sequence of SEQ ID NO.: 1. Further, the efficacy of the bioactive compound obtained from the cowhide peptides of the present disclosure in resisting blue light and preventing inflammatory reactions was confirmed.
(§2) 1. Cell strain: Human retinal pigment epithelial cell ARPE-19 (purchased from ATCC, product number CRL-2302). […]
(§3) The cell membranes of each group of human retinal pigment epithelial cells (i.e., the control group, the comparative group, and the experimental group) resulted from the cell treatment stage were broken with cell lysates. […] Then the cDNA of each group was subjected to a quantitative real-time reverse transcription polymerase chain reaction (qRT-PCR) using the ABI StepOnePlus™ Real-time PCR system (Thermo Fisher Scientific), KAPA SYBR FAST (Sigma, USA, product number 38220000000) and the primers listed in Table 3 (SEQ 1D NO.: 2 to SEQ ID NO.: 9) to assess the expression of VEGFA gene. […] Gene quantification was performed using a 2^−ΔCt method. […]

IL-1β gene = test: qRT-PCR of IL-1β gene expression in blue light-irradiated human retinal pigment epithelial cells; conditions: ARPE-19 cells, 0.0125 mg/ml, incubated 24 h, then blue light 15 min; control group = 100%, comparative group (blue light only) 109.21%
Source text: as §1, §2, §3

VEGFA gene = test: qRT-PCR of VEGFA gene expression in blue light-irradiated human retinal pigment epithelial cells; conditions: ARPE-19 cells, 0.0125 mg/ml, incubated 24 h, then blue light 15 min; control group = 100%, comparative group (blue light only) 109.47%
Source text: as §1, §2, §3

CC(C)C[C@H](NC(=O)[C@H](CO)NC(=O)[C@@H](NC(=O)[C@@H]1CCCN1C(=O)[C@H](CC(C)C)NC(=O)CNC(=O)[C@H](CO)NC(=O)[C@@H]1CCCN1C(=O)[C@H](CC(C)C)NC(=O)[C@H](CCCCN)NC(=O)C(N)C(C)O)C(C)C)C(=O)O (stereo partly drawn) [cowhide peptide, TKLPSGLPVSL]
expression of IL-8 gene relative to the control group (IL-8 gene): 88.29%
expression of IL-1β gene relative to the control group (IL-1β gene): 66.36%
expression of VEGFA gene relative to the control group (VEGFA gene): 84.07%
